Experimental findings from patent US12479847B2 (DANA-FARBER CANCER INSTITUTE, INC., priority 2019, dated 2025) are described below.

What all share (experiment): KINOMEscan (ScanMAX) kinase profiling
Format in all cases: binding

Test [1] has as its target T1, panel of 468 kinases (Homo sapiens, UniProt P15056, V600E).
T1 construct: purchased KINOMEscan (ScanMAX) service
To be noted: BRAF(V600E); 1 μM; read-out: % control.

Test [2] deals with T2, panel of 468 kinases (Homo sapiens, UniProt P48736).
T2 construct: purchased KINOMEscan (ScanMAX) service
T2 sequence (P48736 whole entry): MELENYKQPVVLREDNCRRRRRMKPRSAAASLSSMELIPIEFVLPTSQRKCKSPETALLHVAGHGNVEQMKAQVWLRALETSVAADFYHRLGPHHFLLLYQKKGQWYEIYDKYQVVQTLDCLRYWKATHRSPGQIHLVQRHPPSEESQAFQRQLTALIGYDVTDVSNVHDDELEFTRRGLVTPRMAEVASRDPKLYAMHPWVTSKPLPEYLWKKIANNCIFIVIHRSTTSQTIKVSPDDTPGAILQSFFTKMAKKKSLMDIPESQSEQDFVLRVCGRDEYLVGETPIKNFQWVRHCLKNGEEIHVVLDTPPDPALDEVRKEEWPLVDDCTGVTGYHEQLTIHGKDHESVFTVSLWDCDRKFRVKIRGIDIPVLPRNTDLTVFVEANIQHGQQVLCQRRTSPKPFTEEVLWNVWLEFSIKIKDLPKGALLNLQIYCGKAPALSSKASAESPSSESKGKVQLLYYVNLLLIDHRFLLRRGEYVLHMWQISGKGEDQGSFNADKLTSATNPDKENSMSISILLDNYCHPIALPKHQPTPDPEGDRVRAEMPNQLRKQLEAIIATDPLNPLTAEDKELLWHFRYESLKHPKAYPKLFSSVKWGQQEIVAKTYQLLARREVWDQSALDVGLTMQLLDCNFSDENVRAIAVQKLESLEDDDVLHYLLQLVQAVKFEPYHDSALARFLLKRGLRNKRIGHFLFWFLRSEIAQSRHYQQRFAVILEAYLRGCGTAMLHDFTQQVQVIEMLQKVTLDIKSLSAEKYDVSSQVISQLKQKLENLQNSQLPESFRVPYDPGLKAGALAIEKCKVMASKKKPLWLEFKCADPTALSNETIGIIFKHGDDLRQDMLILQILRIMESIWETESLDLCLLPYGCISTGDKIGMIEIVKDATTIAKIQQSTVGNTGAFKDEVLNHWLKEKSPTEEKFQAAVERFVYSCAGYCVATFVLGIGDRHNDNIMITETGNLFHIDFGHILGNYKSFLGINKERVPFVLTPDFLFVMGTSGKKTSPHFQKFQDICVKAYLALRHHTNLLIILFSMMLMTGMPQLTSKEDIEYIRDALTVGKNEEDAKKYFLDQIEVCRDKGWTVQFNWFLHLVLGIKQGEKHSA
Particulars: PIK3CG; 1 μM; read-out: % control.

Test [3] addresses T3, panel of 468 kinases (Homo sapiens, UniProt Q13470).
T3 construct: purchased KINOMEscan (ScanMAX) service
T3 sequence (Q13470 1-666): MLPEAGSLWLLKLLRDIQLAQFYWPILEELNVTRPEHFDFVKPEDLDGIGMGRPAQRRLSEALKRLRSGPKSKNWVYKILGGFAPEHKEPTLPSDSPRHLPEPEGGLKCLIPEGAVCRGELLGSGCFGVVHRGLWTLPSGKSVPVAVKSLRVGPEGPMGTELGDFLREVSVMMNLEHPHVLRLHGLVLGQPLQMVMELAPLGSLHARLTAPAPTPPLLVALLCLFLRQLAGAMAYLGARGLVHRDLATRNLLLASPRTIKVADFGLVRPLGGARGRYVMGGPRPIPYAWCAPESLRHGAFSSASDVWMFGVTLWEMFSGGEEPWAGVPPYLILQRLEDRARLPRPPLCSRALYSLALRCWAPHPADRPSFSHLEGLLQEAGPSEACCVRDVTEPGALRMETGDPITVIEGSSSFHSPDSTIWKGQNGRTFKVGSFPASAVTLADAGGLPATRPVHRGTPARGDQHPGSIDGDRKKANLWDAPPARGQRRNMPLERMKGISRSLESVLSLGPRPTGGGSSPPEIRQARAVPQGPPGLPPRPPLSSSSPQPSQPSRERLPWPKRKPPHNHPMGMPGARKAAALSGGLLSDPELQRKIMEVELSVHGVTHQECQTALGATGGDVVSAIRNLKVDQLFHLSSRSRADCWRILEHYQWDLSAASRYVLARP
To be noted: TNK1; 1 μM; read-out: % control.

The target of test [4] is T4, panel of 468 kinases (Homo sapiens, UniProt Q99558).
T4 construct: purchased KINOMEscan (ScanMAX) service
T4 sequence (Q99558 whole entry): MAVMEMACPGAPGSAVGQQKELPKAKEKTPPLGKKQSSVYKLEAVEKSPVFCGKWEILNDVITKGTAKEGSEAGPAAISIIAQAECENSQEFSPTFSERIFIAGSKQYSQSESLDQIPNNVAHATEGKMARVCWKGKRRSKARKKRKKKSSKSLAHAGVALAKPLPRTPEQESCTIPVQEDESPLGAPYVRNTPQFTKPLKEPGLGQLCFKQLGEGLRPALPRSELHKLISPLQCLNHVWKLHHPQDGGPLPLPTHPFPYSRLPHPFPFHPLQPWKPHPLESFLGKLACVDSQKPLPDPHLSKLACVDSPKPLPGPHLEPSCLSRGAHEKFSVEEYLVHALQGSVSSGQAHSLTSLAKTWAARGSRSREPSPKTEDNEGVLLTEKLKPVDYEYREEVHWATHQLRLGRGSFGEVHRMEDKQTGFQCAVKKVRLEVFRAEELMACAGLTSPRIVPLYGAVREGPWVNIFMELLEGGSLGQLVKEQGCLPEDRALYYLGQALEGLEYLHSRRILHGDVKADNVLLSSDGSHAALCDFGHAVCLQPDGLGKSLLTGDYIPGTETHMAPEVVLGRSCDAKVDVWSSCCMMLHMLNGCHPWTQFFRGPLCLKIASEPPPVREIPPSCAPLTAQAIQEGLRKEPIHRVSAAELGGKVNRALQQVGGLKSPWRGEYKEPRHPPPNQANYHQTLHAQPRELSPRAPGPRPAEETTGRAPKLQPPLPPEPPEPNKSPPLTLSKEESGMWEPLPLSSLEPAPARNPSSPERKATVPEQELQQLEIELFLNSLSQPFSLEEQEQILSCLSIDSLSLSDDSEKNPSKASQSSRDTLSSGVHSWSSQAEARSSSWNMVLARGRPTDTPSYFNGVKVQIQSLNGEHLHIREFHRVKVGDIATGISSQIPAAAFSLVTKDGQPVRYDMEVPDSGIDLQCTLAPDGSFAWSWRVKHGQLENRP
Particulars: NIK; 1 μM; read-out: % control.

Test [5] concerns the target T5, panel of 468 kinases (Homo sapiens, UniProt Q99640).
T5 construct: purchased KINOMEscan (ScanMAX) service
T5 sequence (Q99640 1-499): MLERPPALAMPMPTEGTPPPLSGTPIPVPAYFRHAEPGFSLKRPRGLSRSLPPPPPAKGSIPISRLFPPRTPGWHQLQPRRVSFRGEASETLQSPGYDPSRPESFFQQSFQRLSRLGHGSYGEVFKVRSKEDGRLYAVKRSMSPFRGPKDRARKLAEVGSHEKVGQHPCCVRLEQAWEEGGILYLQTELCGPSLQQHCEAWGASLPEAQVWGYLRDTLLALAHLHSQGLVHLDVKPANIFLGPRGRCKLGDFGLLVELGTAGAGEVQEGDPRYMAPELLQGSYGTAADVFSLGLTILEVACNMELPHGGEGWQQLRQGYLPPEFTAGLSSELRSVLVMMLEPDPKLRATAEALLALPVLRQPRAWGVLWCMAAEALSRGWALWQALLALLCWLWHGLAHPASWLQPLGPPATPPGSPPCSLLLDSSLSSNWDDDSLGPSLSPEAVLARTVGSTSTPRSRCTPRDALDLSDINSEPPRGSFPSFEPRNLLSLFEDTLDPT
Particulars: PKMYT1; 1 μM; read-out: % control.

In test [6] the target is T6, panel of 468 kinases (Homo sapiens, UniProt Q9BXA7).
T6 construct: purchased KINOMEscan (ScanMAX) service
T6 sequence (Q9BXA7 1-367): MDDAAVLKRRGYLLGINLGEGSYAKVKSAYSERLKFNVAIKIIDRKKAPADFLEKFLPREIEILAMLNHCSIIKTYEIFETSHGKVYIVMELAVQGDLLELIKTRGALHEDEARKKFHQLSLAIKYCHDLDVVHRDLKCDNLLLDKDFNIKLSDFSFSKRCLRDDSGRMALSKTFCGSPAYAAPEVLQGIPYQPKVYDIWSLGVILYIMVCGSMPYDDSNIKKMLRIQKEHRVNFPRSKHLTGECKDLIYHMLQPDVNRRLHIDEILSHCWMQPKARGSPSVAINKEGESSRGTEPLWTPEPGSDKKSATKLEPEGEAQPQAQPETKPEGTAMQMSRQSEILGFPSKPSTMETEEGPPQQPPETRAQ
Particulars: TSSK1B; 1 μM; read-out: % control.

Test [7] addresses T7, panel of 468 kinases (Homo sapiens, UniProt Q9Y3S1).
T7 construct: purchased KINOMEscan (ScanMAX) service
To be noted: WNK2; 1 μM; read-out: % control.

T7 sequence (Q9Y3S1 whole entry): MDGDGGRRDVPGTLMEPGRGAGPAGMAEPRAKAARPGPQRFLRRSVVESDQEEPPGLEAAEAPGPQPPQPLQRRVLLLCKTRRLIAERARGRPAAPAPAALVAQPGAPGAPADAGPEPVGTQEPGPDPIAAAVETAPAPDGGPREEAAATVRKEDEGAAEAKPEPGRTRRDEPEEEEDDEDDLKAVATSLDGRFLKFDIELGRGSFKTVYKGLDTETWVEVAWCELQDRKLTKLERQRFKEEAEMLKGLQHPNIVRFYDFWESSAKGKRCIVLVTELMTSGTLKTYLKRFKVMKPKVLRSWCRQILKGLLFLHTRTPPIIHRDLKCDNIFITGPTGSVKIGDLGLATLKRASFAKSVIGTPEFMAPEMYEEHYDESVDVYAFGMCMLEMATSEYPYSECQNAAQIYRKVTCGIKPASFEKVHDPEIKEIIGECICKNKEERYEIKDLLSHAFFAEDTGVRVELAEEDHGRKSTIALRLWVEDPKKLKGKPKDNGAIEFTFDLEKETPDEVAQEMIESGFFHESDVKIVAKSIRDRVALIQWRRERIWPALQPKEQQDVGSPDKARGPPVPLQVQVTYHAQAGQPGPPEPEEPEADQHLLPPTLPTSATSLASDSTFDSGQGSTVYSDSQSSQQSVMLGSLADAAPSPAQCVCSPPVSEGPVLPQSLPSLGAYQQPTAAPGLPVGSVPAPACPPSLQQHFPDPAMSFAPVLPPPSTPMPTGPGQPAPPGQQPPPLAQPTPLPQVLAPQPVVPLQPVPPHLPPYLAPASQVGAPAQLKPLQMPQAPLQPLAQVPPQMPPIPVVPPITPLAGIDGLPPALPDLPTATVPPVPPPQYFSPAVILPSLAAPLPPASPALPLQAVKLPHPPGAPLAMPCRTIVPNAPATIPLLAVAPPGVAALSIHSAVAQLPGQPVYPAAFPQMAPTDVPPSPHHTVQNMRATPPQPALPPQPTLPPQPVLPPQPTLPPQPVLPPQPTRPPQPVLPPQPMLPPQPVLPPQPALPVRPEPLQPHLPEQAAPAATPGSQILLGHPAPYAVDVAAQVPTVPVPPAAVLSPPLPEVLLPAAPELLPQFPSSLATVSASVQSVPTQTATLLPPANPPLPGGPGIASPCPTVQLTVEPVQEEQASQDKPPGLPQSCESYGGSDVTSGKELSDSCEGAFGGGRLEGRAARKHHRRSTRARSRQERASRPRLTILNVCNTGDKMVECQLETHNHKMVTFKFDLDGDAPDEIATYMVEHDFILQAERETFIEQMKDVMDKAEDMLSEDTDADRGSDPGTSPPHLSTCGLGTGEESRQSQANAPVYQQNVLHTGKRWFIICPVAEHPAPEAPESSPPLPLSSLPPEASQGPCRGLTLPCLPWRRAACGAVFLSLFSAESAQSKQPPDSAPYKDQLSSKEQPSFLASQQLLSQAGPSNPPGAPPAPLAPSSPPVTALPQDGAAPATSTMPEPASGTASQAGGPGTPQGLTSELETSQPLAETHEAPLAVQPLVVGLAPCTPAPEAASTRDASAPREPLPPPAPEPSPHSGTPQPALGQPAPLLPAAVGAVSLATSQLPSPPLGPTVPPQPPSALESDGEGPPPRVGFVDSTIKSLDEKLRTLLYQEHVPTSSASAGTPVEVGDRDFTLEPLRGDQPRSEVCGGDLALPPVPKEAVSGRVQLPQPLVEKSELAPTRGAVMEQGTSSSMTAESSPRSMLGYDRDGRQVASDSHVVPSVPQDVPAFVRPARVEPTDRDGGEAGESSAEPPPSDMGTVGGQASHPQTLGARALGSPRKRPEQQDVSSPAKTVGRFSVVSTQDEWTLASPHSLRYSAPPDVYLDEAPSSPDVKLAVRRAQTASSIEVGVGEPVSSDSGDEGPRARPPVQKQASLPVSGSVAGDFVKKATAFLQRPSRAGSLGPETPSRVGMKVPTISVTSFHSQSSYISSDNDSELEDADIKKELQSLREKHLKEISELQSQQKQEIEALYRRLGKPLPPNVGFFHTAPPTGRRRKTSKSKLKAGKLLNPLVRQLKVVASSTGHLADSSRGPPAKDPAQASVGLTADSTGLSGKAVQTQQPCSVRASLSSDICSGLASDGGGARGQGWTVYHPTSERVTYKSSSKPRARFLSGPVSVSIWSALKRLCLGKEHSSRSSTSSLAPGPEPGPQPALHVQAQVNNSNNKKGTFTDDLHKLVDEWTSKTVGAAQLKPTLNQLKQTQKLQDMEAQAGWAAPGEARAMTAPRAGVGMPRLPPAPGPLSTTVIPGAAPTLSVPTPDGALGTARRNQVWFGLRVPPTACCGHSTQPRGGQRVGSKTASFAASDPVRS
T1 sequence (P15056 whole entry V600E): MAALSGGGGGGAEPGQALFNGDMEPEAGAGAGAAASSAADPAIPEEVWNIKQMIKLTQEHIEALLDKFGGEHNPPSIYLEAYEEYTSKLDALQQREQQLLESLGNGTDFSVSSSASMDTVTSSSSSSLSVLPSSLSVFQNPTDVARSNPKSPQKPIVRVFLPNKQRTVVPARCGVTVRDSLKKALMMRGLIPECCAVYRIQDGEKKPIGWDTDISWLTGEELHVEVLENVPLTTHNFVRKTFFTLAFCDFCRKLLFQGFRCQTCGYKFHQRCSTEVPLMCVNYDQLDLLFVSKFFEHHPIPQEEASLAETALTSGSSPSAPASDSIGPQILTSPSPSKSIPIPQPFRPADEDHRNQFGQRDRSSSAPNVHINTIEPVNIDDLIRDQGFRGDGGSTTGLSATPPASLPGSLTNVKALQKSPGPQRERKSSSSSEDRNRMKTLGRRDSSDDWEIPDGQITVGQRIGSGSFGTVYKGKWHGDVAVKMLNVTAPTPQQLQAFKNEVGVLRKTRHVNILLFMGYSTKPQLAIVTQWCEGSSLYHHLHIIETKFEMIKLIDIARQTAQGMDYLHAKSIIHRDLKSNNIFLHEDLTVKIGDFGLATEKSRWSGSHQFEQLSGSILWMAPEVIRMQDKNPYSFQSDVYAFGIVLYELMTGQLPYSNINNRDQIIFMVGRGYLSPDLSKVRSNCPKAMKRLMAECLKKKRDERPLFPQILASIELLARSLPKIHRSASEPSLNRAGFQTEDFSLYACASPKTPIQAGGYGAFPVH

As for `CNc1nc(Nc2ccc(C(=O)N3CCC(N4CCOCC4)CC3)c3c2OCO3)nc2[nH]cc(Cl)c12` [Compound 75, (7-((5-chloro-4-(methylamino)-7H-pyrrolo[2,3-d]pyrimidin-2-yl)amino)benzo[d][1,3]dioxol-4-yl)(4-morpholinopiperidin-1-yl)methanone], the remaining binding at 1 µM on panel of 468 kinases [1] amounted to 100%; on panel of 468 kinases [2], 100%; on panel of 468 kinases [3] it was 100%; at panel of 468 kinases [4], 0%; on panel of 468 kinases [5] it was 100%; on panel of 468 kinases [6], 49%. For the same molecule, the remaining binding at 1 µM at panel of 468 kinases [7] worked out at 69%.
In the case of `CNc1nc(Nc2ccc(P3(=O)CCN(C4CCOCC4)CC3)cc2OC)nc2[nH]cc(Cl)c12` [Compound 77, 4-(4-((5-chloro-4-(methylamino)-7H-pyrrolo[2,3-d]pyrimidin-2-yl)amino)-3-methoxyphenyl)-1-(tetrahydro-2H-pyran-4-yl)-1,4-azaphosphinane 4-oxide], the remaining binding at 1 µM at panel of 468 kinases [1] came out at 88%; on panel of 468 kinases [2], 100%; at panel of 468 kinases [3] it was 96%; on panel of 468 kinases [4], 16%; on panel of 468 kinases [5] it was 100%; on panel of 468 kinases [6] it was 33%. Moreover, at panel of 468 kinases [7], the remaining binding at 1 µM turned out to be 71%.
In the case of `CNc1nc(Nc2ccc(S(=O)(=O)N3CCC(N4CCOCC4)CC3)cc2OC)nc2[nH]cc(Cl)c12` [Compound 12, 5-chloro-N2-(2-methoxy-4-((4-morpholinopiperidin-1-yl)sulfonyl)phenyl)-N4-methyl-7H-pyrrolo[2,3-d]pyrimidine-2,4-diamine], the remaining binding at 1 µM at panel of 468 kinases [1] is 91%; at panel of 468 kinases [2], 95%; at panel of 468 kinases [3], 100%; at panel of 468 kinases [4], 9.2%; at panel of 468 kinases [5], 100%; on panel of 468 kinases [6] it was 72%. On panel of 468 kinases [7], the remaining binding at 1 µM was found to be 62%.
